This note sets out measurements from ChEMBL document CHEMBL3132769, “Fragment growing to retain or alter the selectivity of anchored kinase hinge-binding fragments” (Medchemcomm, 2014).

A word on the inhibition: it is the relative decrease from the control value, in per cent.

Assay [1] has as its target Epidermal growth factor receptor (Homo sapiens) (UniProt P00533). In words: Inhibition of human EGFR catalytic domain expressed in baculovirus assessed as substrate phosphorylation using fluorescence-labelled peptides as substrate at 2 uM after 90 mins by microfluidic peptide phosphorylation assay.
Assay [2] deals with Ribosomal protein S6 kinase alpha-5 (Homo sapiens) (UniProt O75582). In words: Inhibition of human full length MSK1 expressed in baculovirus assessed as substrate phosphorylation using fluorescence-labelled peptides as substrate at 0.1 uM after 90 mins by microfluidic peptide phosphorylation assay.
The target of assay [3] is Rho-associated protein kinase 2 (Homo sapiens) (UniProt O75116). To be noted: 0.1 uM.
Description: Inhibition of human ROCK2 catalytic domain expressed in baculovirus assessed as substrate phosphorylation using fluorescence-labelled peptides as substrate at 0.1 uM after 90 mins by microfluidic peptide phosphorylation assay
In assay [4] the target is Serine/threonine-protein kinase pim-1 (Homo sapiens) (UniProt P11309). Nature of the assay: Inhibition of human full length PIM1 expressed in baculovirus assessed as substrate phosphorylation using fluorescence-labelled peptides as substrate at 0.2 uM after 90 mins by microfluidic peptide phosphorylation assay.
The target in assay [5] is T1, MAP kinase-activated protein kinase 5 (Homo sapiens) (UniProt Q8IW41).
T1 sequence (whole entry): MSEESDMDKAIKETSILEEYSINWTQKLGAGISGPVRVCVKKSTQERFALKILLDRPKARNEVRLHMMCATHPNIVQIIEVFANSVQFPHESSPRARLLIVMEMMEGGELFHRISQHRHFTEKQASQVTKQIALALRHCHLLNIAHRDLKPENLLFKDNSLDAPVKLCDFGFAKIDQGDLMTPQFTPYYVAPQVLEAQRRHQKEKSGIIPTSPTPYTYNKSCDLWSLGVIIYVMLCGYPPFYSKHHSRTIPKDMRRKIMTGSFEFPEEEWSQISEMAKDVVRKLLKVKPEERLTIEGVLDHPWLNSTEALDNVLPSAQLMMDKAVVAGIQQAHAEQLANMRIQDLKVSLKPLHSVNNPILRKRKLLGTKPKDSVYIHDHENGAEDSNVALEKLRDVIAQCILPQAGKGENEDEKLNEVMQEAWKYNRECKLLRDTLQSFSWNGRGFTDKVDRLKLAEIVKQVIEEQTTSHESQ
Nature of the assay: Inhibition of human full length PRAK expressed in baculovirus assessed as substrate phosphorylation using fluorescence-labelled peptides as substrate at 0.2 uM after 90 mins by microfluidic peptide phosphorylation assay.

The target in assay [6] is T2, Aurora kinase C (Homo sapiens) (UniProt Q9UQB9).
T2 sequence (whole entry): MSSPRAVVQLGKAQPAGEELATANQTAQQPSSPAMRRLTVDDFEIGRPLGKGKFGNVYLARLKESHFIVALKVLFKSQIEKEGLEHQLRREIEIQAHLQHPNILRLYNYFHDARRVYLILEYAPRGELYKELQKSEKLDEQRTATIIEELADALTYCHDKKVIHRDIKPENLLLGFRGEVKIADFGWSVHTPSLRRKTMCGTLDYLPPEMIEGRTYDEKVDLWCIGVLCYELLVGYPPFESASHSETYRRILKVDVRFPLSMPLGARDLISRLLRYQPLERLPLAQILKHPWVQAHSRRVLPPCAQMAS
Nature of the assay: Inhibition of human full length AurC expressed in baculovirus assessed as substrate phosphorylation using fluorescence-labelled peptides as substrate at 0.06 uM after 90 mins by microfluidic peptide phosphorylation assay.

Assay [7] has as its target Protein kinase C theta type (Homo sapiens) (UniProt Q04759). In words: Inhibition of human truncated PKC theta expressed in baculovirus assessed as substrate phosphorylation using fluorescence-labelled peptides as substrate at 70 uM after 90 mins by microfluidic peptide phosphorylation assay.
Assay [8] has as its target Aurora kinase B (Homo sapiens) (UniProt Q96GD4). In words: Inhibition of human full length AurB expressed in baculovirus assessed as substrate phosphorylation using fluorescence-labelled peptides as substrate at 70 uM after 90 mins by microfluidic peptide phosphorylation assay.
Assay [9] concerns the target RAF proto-oncogene serine/threonine-protein kinase (Homo sapiens) (UniProt P04049). Nature of the assay: Inhibition of human truncated c-Raf expressed in baculovirus assessed as substrate phosphorylation using fluorescence-labelled peptides as substrate at 420 uM after 90 mins by microfluidic peptide phosphorylation assay.
Assay [10] addresses T3, Calcium/calmodulin-dependent protein kinase type IV (Homo sapiens) (UniProt Q16566).
T3 sequence (whole entry): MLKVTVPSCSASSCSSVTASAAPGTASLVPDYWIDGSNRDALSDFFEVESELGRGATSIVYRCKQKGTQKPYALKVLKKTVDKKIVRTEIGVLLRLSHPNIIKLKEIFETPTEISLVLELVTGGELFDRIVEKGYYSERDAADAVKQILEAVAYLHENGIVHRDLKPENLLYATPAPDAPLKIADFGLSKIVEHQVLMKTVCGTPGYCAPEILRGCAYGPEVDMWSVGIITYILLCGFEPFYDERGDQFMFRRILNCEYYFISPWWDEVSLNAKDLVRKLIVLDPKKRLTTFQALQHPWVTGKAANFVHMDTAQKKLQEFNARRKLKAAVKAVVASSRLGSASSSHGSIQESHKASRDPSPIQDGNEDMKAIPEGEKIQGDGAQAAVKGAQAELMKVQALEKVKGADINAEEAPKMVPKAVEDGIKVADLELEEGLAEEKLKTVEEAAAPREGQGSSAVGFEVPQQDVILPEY
Nature of the assay: Inhibition of human full length CAMK4 expressed in baculovirus assessed as substrate phosphorylation using fluorescence-labelled peptides as substrate at 1000 uM after 90 mins by microfluidic peptide phosphorylation assay.

Chain of Ribosomal protein S6 kinase alpha-5 (Homo sapiens) (O75582 whole entry, looked up): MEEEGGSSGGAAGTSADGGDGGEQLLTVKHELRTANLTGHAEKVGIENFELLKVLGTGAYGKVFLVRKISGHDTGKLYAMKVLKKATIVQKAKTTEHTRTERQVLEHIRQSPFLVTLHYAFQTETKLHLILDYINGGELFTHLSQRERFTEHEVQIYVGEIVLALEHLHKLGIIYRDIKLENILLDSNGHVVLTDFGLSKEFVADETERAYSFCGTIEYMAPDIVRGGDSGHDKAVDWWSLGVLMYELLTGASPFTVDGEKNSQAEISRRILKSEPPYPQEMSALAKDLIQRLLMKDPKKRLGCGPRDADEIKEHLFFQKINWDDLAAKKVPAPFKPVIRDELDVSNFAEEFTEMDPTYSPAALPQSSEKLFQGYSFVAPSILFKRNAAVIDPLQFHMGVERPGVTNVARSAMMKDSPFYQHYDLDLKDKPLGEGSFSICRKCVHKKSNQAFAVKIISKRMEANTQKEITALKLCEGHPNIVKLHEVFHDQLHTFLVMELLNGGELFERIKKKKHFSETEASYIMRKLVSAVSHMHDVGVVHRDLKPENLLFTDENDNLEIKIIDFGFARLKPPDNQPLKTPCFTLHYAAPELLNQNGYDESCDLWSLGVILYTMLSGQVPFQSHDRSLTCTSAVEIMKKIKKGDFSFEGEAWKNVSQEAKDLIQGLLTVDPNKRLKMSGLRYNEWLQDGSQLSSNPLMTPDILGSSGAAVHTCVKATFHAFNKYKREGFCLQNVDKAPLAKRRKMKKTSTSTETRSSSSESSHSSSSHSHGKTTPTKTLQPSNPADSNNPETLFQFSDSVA
Chain of Serine/threonine-protein kinase pim-1 (Homo sapiens) (P11309 whole entry, looked up): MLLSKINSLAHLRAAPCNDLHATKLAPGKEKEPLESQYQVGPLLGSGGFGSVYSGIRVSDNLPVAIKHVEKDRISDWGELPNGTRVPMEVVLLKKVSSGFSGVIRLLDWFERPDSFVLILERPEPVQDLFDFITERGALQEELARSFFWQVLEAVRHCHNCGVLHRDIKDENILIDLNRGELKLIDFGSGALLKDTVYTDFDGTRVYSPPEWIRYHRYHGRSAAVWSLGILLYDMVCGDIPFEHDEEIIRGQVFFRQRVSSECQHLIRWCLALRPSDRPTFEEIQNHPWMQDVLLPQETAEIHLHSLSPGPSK
Chain of Rho-associated protein kinase 2 (Homo sapiens) (O75116 whole entry, looked up): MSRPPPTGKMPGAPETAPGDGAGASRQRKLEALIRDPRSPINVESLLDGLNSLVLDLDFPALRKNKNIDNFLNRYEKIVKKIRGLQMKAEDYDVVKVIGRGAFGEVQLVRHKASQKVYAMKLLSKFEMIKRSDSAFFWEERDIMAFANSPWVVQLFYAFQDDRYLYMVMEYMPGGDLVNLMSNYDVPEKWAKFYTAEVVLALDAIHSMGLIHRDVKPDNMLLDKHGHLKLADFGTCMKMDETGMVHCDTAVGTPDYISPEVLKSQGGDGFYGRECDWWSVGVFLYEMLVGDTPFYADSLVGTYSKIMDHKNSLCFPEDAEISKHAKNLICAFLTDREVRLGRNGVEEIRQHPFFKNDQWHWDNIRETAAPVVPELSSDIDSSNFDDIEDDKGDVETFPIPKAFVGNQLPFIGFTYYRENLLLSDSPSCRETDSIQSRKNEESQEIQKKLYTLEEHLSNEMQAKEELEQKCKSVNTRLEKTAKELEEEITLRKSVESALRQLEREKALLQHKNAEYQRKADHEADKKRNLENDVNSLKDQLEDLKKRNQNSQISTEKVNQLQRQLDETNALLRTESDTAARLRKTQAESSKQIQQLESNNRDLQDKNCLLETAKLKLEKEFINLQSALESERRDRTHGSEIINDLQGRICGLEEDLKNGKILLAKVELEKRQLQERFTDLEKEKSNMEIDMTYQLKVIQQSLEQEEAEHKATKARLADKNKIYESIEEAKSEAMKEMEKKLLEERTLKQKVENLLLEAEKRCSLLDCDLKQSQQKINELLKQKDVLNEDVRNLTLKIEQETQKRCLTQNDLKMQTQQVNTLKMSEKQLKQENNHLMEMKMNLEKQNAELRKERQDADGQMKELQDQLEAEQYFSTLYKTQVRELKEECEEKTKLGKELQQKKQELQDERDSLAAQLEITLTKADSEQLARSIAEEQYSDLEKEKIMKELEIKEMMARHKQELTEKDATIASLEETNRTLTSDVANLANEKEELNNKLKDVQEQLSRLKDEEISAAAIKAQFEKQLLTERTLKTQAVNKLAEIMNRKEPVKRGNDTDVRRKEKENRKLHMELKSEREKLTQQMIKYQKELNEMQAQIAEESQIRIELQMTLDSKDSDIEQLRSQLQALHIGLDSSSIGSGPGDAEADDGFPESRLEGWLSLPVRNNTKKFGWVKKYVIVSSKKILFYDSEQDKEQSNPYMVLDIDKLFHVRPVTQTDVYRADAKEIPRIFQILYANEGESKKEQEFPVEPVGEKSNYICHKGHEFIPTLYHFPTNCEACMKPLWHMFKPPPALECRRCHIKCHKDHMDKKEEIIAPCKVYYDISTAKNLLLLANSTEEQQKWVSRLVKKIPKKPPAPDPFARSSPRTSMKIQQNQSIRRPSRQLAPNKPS
Chain of Aurora kinase B (Homo sapiens) (Q96GD4 whole entry, the tested form may be a part): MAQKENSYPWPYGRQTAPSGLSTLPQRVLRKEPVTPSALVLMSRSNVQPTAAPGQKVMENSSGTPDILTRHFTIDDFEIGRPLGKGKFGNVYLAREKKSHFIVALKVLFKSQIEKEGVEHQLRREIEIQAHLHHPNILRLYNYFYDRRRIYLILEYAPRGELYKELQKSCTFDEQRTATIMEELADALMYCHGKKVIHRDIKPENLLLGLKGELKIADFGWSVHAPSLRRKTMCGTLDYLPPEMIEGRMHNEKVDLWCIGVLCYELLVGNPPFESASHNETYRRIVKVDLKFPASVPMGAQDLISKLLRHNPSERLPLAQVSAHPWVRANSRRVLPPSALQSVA
Chain of Protein kinase C theta type (Homo sapiens) (Q04759 whole entry, looked up, the tested form may be a part): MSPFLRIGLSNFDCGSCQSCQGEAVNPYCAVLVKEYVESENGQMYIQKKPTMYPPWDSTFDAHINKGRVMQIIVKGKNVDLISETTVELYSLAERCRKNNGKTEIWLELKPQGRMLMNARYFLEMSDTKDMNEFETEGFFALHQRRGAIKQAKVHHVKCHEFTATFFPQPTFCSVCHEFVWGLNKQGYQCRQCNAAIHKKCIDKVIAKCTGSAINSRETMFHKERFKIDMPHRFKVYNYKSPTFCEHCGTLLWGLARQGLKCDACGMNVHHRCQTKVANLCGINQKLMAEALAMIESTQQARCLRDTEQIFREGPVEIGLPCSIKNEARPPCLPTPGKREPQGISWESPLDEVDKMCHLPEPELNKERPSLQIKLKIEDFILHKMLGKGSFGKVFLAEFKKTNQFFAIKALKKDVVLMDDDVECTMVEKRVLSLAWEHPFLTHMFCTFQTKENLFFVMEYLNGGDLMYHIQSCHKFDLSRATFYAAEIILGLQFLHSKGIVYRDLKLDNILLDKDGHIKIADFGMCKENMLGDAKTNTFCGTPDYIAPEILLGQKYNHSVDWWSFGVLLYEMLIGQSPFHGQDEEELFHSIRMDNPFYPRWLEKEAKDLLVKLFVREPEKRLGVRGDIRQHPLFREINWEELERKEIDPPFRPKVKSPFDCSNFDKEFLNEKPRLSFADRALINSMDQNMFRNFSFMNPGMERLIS
Chain of Epidermal growth factor receptor (Homo sapiens) (P00533 whole entry, the tested form may be a part): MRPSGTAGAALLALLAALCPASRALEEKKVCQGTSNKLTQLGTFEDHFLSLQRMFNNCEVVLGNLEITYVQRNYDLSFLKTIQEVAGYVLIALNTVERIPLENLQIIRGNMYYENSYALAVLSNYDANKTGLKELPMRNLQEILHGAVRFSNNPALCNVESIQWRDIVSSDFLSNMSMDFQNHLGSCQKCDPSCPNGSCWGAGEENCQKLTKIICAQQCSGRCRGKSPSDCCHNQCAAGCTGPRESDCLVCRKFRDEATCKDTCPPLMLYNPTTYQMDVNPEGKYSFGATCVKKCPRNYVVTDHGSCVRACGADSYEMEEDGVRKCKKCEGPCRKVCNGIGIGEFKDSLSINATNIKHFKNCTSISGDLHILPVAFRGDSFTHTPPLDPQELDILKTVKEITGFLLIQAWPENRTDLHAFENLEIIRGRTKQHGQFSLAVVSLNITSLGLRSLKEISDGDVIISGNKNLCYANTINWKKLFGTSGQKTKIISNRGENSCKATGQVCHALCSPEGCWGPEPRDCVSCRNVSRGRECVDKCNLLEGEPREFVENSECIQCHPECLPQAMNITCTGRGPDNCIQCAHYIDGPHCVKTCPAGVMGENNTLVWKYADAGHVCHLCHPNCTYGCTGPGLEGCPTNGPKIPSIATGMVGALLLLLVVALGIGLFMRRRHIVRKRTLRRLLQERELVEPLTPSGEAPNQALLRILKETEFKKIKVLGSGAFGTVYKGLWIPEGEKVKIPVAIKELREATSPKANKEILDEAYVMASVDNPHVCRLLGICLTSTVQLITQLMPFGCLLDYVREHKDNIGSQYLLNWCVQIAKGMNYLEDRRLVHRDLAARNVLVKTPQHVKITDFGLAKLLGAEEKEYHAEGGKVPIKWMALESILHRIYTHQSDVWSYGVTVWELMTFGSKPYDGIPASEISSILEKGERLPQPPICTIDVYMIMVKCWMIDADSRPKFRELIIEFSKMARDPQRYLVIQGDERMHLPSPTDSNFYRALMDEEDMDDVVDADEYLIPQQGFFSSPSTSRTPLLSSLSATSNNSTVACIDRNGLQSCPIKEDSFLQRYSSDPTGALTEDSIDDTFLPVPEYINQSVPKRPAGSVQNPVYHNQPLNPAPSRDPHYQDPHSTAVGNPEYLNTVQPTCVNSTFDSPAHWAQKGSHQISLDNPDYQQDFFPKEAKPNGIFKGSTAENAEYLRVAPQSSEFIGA

For the molecule `NC1CCN(c2ncnc3[nH]ccc23)CC1`, the inhibition in assay [1] was 3.5%. For the molecule `C[C@H](CN(C)C)Oc1nc(Nc2cc3cccc(Cl)c3cn2)cnc1C#N`, the inhibition in assay [2] turned out to be 0.5%; in [3], 0%. For `Clc1ccc(C2(c3ccc(-c4ncnc5[nH]cnc45)cc3)CCNCC2)cc1`, the values for the inhibition in assay [4] and in assay [5] were 0% and 8.5%, respectively. With `NC1(Cc2ccc(Cl)cc2)CCN(c2ncnc3[nH]ccc23)CC1`, the inhibition in assay [6] was 0%. `CNCc1ccc(-c2ncnc3[nH]cnc23)cc1`: the inhibition in assay [7] was determined as 67.5%; in assay [8] it was 85%. Turning to `c1nc(N2CCOCC2)c2nc[nH]c2n1`, the inhibition in assay [9] amounted to 52%.

As to `c1cnc2[nH]ccc2c1`, the inhibition in assay [10] turned out to be 52%.
